Publication PMC6982223, “Design, Synthesis and Molecular Modeling Study of Conjugates of ADP and Morpholino Nucleosides as A Novel Class of Inhibitors of PARP-1, PARP-2 and PARP-3” (International Journal of Molecular Sciences, 2019)

Legend:
[1] = target: T1, Human recombinant poly(ADP-ribose)-polymerase 1 (Homo sapiens, UniProt P09874); assay: autopoly(ADP-ribosyl)ation of PARP-1, [32P]NAD+ incorporation; assay type: biochemical; settings: for IC50: autopoly(ADP-ribosyl)ation, 0.3 mM NAD+; for remaining activity at 1000 µM / Residual PARP-1 activity: in the presence of 1 mM compound; for remaining activity at 1000 µM: read-out: Residual PARP-1 activity (converted)
T1 construct: made in house
Description: (§1) The oligonucleotides were purchased from Biosset (Novosibirsk, Russia). The reagents, solvents and the basic components of buffers were purchased from Sigma (St. Louis, MO, USA), Acros organics (Waltham, MA, USA) or Promega (Madison, WI, USA). γ–[^32P]-ATP and α–[^32P]-ATP (with specific activities of 5000 and 3000 Ci/mmol, respectively) were from the Laboratory of Biotechnology (Institute of Chemical Biology and Fundamental Medicine, Novosibirsk, Russia). T4 polynucleotide kinase was from Biosan (Novosibirsk, Russia). SUMO fusion expression vector pETHSUL (GenBank: EF205333.1) and pSUPER vector coding for the catalytic domain of the S. cerevisiae SUMO hydrolase dtUD1 were kindly provided by Dr. P. Loll (Drexel University, Philadelphia, USA). His6 and Strep-II double-tagged dtUD1 hydrolase was expressed and purified as described in ref. [81]. Human recombinant poly(ADP-ribose)-polymerase 1 (EC 2.4.2.30) was prepared as described previously. Murine recombinant poly(ADP-ribose)-polymerase 2 (EC 2.4.2.30) was purified as described previously. Plasmid encoding human PARP-3 was kindly provided by Dr. A. Ishchenko (Gustave Roussy, Université Paris-Saclay, France). Poly(ADP-ribose)-polymerase 3 (EC 2.4.2.30) was purified according to [6].
(§2) The reaction of autopoly(ADP-ribosyl)ation was carried out as follows: for PARP-1 50 mM tris-HCl, pH 8.0, 20 mM MgCl2, 150 mM NaCl, and 7 mM β-mercaptoethanol, activated DNA 2 OE/mL, 0.3 mM [^32P] NAD+ at 37 °C. The reaction was initiated by adding PARP-1 to 200 nM and the reaction mixtures were incubated for 1.5 min. For PARP-2: 50 mM tris-HCl, pH 8.0, 3 mM spermin, 150 mM NaCl, and 7 mM β-mercaptoethanol, activated DNA 2 OE/mL, 0.6 mM [^32P] NAD+ at 37 °C. The reaction was initiated by adding PARP-2 to 800 nM and the reaction mixtures were incubated for 5 min. The reaction was stopped by placing 10 μL aliquots onto Whatman 1 paper filters soaked with 5 % TCA. The filters were washed with 5% TCA for four times and dried in air after the removal of TCA with 90% ethanol. The incorporation of radioactivity into the product was calculated with a Tri-Carb 2800 scintillation counter (Perkin Elmer, Waltham, MA, USA) according to the Cherenkov method or using Typhoon FLA 9500 scanner (GE Healthcare, Chicago, IL, USA). To determine the IC50 value of inhibitors (concentration of the compound required reducing the enzyme activity by 50%), we studied the activity of the enzyme at different concentrations of inhibitors. Measurements were done in at least two independent experiments. IC50 values were calculated using the Origin Pro 8.0 software by nonlinear regression analysis.

[2] = target: T2, Murine recombinant poly(ADP-ribose)-polymerase 2 (Mus musculus, UniProt O88554); assay: autopoly(ADP-ribosyl)ation of PARP-2, [32P]NAD+ incorporation; assay type: biochemical; settings: for IC50: autopoly(ADP-ribosyl)ation, 0.6 mM NAD+; for remaining activity at 1000 µM / Residual PARP-2 activity: in the presence of 1 mM compound; for remaining activity at 1000 µM: read-out: Residual PARP-2 activity (converted)
T2 construct: made in house
Description: as §1, §2

T2 sequence (O88554 whole entry): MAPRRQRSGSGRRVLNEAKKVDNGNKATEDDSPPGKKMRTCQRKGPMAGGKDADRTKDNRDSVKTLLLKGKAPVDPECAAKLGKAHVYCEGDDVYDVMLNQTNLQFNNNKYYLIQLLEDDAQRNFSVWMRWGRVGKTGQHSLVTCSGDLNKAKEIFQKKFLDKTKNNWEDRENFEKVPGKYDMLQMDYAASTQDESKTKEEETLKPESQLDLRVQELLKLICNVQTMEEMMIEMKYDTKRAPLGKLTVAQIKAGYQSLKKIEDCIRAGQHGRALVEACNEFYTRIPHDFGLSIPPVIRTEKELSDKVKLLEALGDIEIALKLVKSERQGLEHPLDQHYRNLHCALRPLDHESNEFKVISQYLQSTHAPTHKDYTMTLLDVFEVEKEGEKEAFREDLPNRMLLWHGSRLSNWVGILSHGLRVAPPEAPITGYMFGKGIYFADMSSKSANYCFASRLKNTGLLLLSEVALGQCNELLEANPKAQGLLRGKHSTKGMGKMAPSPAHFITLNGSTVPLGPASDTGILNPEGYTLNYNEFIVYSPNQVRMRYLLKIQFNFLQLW
T1 sequence (P09874 whole entry): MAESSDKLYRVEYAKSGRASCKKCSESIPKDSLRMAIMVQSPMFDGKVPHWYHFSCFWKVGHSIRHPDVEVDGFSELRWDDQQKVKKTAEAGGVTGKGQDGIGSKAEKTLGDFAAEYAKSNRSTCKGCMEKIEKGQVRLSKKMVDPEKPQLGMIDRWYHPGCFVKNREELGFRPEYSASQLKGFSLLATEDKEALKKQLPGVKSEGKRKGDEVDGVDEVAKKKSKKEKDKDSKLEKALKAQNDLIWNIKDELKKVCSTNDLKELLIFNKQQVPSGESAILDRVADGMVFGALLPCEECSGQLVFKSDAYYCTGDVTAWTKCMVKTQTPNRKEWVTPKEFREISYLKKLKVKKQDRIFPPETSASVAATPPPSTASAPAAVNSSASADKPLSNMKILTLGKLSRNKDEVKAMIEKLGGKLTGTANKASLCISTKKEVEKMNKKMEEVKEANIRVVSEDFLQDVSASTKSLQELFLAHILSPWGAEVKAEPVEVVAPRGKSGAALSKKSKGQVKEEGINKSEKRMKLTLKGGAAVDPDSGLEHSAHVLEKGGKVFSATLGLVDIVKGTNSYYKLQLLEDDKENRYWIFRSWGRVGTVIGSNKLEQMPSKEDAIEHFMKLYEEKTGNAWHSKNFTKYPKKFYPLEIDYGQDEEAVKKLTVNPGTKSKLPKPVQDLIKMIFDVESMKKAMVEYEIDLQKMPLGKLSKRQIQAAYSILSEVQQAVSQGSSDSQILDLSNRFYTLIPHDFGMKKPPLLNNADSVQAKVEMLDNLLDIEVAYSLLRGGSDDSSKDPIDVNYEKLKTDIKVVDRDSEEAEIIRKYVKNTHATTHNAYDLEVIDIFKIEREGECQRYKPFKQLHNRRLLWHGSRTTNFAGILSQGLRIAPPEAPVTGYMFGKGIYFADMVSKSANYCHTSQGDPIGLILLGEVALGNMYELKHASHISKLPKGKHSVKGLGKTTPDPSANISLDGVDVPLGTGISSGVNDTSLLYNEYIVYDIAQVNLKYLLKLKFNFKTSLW

Structure (SMILES)	IC50 [1]	IC50 [2]	remaining activity at 1000 µM [1]	remaining activity at 1000 µM [2]	other results
O=c1[nH]c(=O)n([C@@H]2O[C@H](CO)[C@@H](O)[C@H]2O)cc1I [Compound 5-I-Urd, 5-I-uridine, reference compound]	49 ± 9 µM	26.5 ± 3.5 µM	–	–	–
O=c1[nH]c(=O)n([C@@H]2O[C@H](CO)[C@@H](O)[C@H]2O)cc1Br [Compound 5-Br-Urd, 5-Br-uridine, reference compound]	244 ± 83 µM	190 ± 16 µM	–	–	–
Nc1nc2c(ncn2C2CNCC(COP(=O)(O)OP(=O)(O)OCC3OC(n4cnc5c(N)ncnc54)C(O)C3O)O2)c(=O)[nH]1 (centres unmarked) [Compound 4G]	–	–	45.5%	34%	–
Nc1nc2c(ncn2[C@H]2CNC[C@@H](CO)O2)c(=O)[nH]1 [Compound 11G]	–	–	–	64%	–
Cc1cn(C2CNCC(COP(=O)(O)OP(=O)(O)OCC3OC(n4cnc5c(N)ncnc54)C(O)C3O)O2)c(=O)[nH]c1=O (centres unmarked) [Compound 4T]	–	474 µM	40%	–	–
Nc1ncnc2c1ncn2C1CNCC(COP(=O)(O)OP(=O)(O)OCC2OC(n3cnc4c(N)ncnc43)C(O)C2O)O1 (centres unmarked) [Compound 4A]	–	421 ± 6 µM	80%	–	–
O=c1ccn([C@@H]2O[C@H](CO)[C@@H](O)[C@H]2O)c(=O)[nH]1 [Urd, reference compound]	–	–	–	–	Residual PARP-2 activity [2]: 96% ± 10%
Nc1ncnc2c1ncn2C1OC(COP(=O)(O)OP(=O)(O)OCC2CNCC(n3ccc(=O)[nH]c3=O)O2)C(O)C1O (centres unmarked) [Compound 4U]	–	–	93%	67%	–
Nc1ncnc2c1ncn2C1OC(COP(=O)(O)OP(=O)(O)OCC2CNCC(n3cc(Cl)c(=O)[nH]c3=O)O2)C(O)C1O (centres unmarked) [Compound 4ClU]	–	–	57.5%	46.8%	–
Nc1ccn(C2CNCC(COP(=O)(O)OP(=O)(O)OCC3OC(n4cnc5c(N)ncnc54)C(O)C3O)O2)c(=O)n1 (centres unmarked) [Compound 4C]	–	–	96%	66%	–
Nc1ncnc2c1ncn2C1OC(COP(=O)(O)OP(=O)(O)OCC2CNCC(n3cc(Br)c(=O)[nH]c3=O)O2)C(O)C1O (centres unmarked) [Compound 4BrU]	–	474 µM	36%	–	–
Nc1nc2c(ncn2[C@@H]2O[C@H](CO)[C@@H](O)[C@H]2O)c(=O)[nH]1 [Guo, reference compound]	–	–	–	–	Residual PARP-1 activity [1]: 60% ± 13%; Residual PARP-2 activity [2]: 46% ± 25%
Nc1ncnc2c1ncn2C1OC(COP(=O)(O)OP(=O)(O)NCC2CNCC(n3cc(Br)c(=O)[nH]c3=O)O2)C(O)C1O (centres unmarked) [Compound 10BrU]	–	254 µM	60%	–	–
Nc1ncnc2c1ncn2[C@@H]1O[C@H](CO)[C@@H](O)[C@H]1O [Ado, reference compound]	–	–	–	–	Residual PARP-1 activity [1]: 77% ± 21%; Residual PARP-2 activity [2]: 86% ± 1%
Nc1ccn([C@H]2CNC[C@@H](CO)O2)c(=O)n1 [Compound 11C]	–	–	–	58%	–

Further lines, with some results ahead:

IC50 [1]	IC50 [2]	remaining activity at 1000 µM [1]	remaining activity at 1000 µM [2]	Structure (SMILES)	other results
–	–	89%	33%	Nc1ncnc2c1ncn2C1OC(COP(=O)(O)OP(=O)(O)NCC2CNCC(n3ccc(=O)[nH]c3=O)O2)C(O)C1O (centres unmarked) [Compound 10U]	–
277 ± 107 µM	330 ± 61 µM	–	–	Cc1cn([C@@H]2O[C@H](CO)[C@@H](O)[C@H]2O)c(=O)[nH]c1=O [rThd, reference compound]	–
148 ± 53 µM	114 ± 32 µM	–	–	Cc1cn([C@H]2CNC[C@@H](CO)O2)c(=O)[nH]c1=O [Compound 11T]	–
233 ± 25 µM	378 µM	–	–	O=c1[nH]c(=O)n([C@H]2CNC[C@@H](CO)O2)cc1Cl [Compound 11ClU]	–
61 ± 16 µM	210 ± 48 µM	–	–	O=c1[nH]c(=O)n([C@H]2CNC[C@@H](CO)O2)cc1Br [Compound 11BrU]	–
220 µM	136 µM	–	–	Cc1cn(C2CNCC(CNP(=O)(O)OP(=O)(O)OCC3OC(n4cnc5c(N)ncnc54)C(O)C3O)O2)c(=O)[nH]c1=O (centres unmarked) [Compound 10T]	–
–	224 µM	74%	–	Nc1nc2c(ncn2C2CNCC(CNP(=O)(O)OP(=O)(O)OCC3OC(n4cnc5c(N)ncnc54)C(O)C3O)O2)c(=O)[nH]1 (centres unmarked) [Compound 10G]	–
